Data taken from PubChem BioAssay AID330 (DTP/NCI, 2004).
Values joined by “and” are separate entries in the source; they are usually repeats but may differ in a detail not shown here. Equal values may be shown once. Toxic doses and inconclusive results are not listed.

System: P388 leukemia ip, CD2F1 mice, survival T/C
Assay: NCI In Vivo Anticancer Drug Screen. Data for tumor model P388 Leukemia (intraperitoneal) in CD2F1 (CDF1) mice
Settings: endpoint: median survival time, higher = longer survival
How it was run: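 Mice carrying the transplanted tumor received test compound or vehicle. Survival was recorded in each group, and the value is the treated-group measurement divided by that of the vehicle-treated control group.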

[1] = dose: 50.0 mg/kg/injection, schedule: Q01DX009 (ip), vehicle: Klucel (hydroxypropylcellulose) (HPC)
[2] = dose: 100.0 mg/kg/injection, schedule: Q01DX009 (ip), vehicle: Klucel (hydroxypropylcellulose) (HPC)
[3] = dose: 200.0 mg/kg/injection, schedule: Q01DX009 (ip), vehicle: Klucel (hydroxypropylcellulose) (HPC)
[4] = dose: 60.0 mg/kg/injection, schedule: Q01DX005 (ip), vehicle: saline with Tween-80
[5] = dose: 120.0 mg/kg/injection, schedule: Q01DX005 (ip), vehicle: saline with Tween-80
[6] = dose: 240.0 mg/kg/injection, schedule: Q01DX005 (ip), vehicle: saline with Tween-80
[7] = dose: 25.0 mg/kg/injection, schedule: Q04DX003 (ip), vehicle: water
[8] = dose: 50.0 mg/kg/injection, schedule: Q04DX003 (ip), vehicle: water
[9] = dose: 100.0 mg/kg/injection, schedule: Q04DX003 (ip), vehicle: water
[10] = dose: 100.0 mg/kg/injection, schedule: Q01DX001 (ip), vehicle: saline with Tween-80
[11] = dose: 200.0 mg/kg/injection, schedule: Q01DX001 (ip), vehicle: saline with Tween-80

In the case of `CCCCCCCCCCC(=O)Nc1ncc([N+](=O)[O-])s1`, the T/C [1] is reported as 96 % of control, the T/C [2] is reported as 100 % of control and the T/C [3] is reported as 102 % of control.

`Nc1nc(N)c2nc(-c3ccc([N+](=O)[O-])cc3)c(=O)[nH]c2n1` was tested, and the T/C [4] was 94 % of control, the T/C [5] was 91 % of control and the T/C [6] was 91 % of control.

`CC(=O)OCC12CC(c3ccoc3)OC3CCC4C(=O)OC(CC1C)C4(C)C32` (stereo not drawn) was tested, and the T/C (dose: 5.25 mg/kg/injection, schedule: Q01DX005 (ip), vehicle: Klucel (hydroxypropylcellulose) (HPC)) was 106 % of control, the T/C (dose: 10.5 mg/kg/injection, schedule: Q01DX005 (ip), vehicle: Klucel (hydroxypropylcellulose) (HPC)) was 95 % of control and the T/C (dose: 21.0 mg/kg/injection, schedule: Q01DX005 (ip), vehicle: Klucel (hydroxypropylcellulose) (HPC)) was 100 % of control. The T/C (dose: 42.0 mg/kg/injection, schedule: Q01DX005 (ip), vehicle: Klucel (hydroxypropylcellulose) (HPC)) was 93 % of control.

With `C=CCOC(=O)C1CC2OC2CC1C` (stereo not drawn) the T/C (dose: 75.0 mg/kg/injection, schedule: Q01DX009 (ip), vehicle: saline with Tween-80) was 96 % of control, the T/C (dose: 150.0 mg/kg/injection, schedule: Q01DX009 (ip), vehicle: saline with Tween-80) was 103 % of control and the T/C (dose: 300.0 mg/kg/injection, schedule: Q01DX009 (ip), vehicle: saline with Tween-80) was 97 % of control.

`COCC1N=C(COCc2ccccc2)OC1c1ccccc1` (stereo not drawn) was tested, and the T/C [4] was 100 % of control, the T/C [5] was 95 % of control and the T/C [6] was 100 % of control.

`CCOc1ccc(C(CC)c2cc3c(cc2OC)OCO3)cc1` (stereo not drawn) was tested, and the T/C (dose: 60.0 mg/kg/injection, schedule: Q01DX005 (ip), vehicle: saline + Tween-80 + alcohol) was 100 % of control, the T/C (dose: 120.0 mg/kg/injection, schedule: Q01DX005 (ip), vehicle: saline + Tween-80 + alcohol) was 100 % of control and the T/C (dose: 240.0 mg/kg/injection, schedule: Q01DX005 (ip), vehicle: saline + Tween-80 + alcohol) was 100 % of control.

In the case of `NC(=O)CNCC1Cc2ccccc21` (stereo not drawn), the T/C (dose: 60.0 mg/kg/injection, schedule: Q01DX005 (ip), vehicle: saline) is reported as 102 % of control and the T/C (dose: 120.0 mg/kg/injection, schedule: Q01DX005 (ip), vehicle: saline) is reported as 98 % of control.

With `Nc1nc(CCCCc2ccccc2)c(N=Nc2ccc(Cl)cc2)c(=O)[nH]1` the T/C [4] was 97 % of control, the T/C [5] was 95 % of control and the T/C [6] was 103 % of control.

In the case of `Nc1nc(Cl)cc2nsnc12`, the T/C (dose: 100.0 mg/kg/injection, schedule: Q04DX002 (ip), vehicle: saline) is reported as 97 % of control, the T/C (dose: 200.0 mg/kg/injection, schedule: Q04DX002 (ip), vehicle: saline) is reported as 99 % of control and the T/C (dose: 400.0 mg/kg/injection, schedule: Q04DX002 (ip), vehicle: saline) is reported as 95 % of control.

For `COc1cccc2c1C(=N)c1c(O)c3c(c(O)c1C2=O)C[C@@](O)(C(=O)CO)C[C@@H]3OC1CC(N)C(O)C(C)O1` (stereo partly drawn), the T/C (dose: 1.56 mg/kg/injection, schedule: Q04DX003 (ip), vehicle: water) was 115 % of control, the T/C (dose: 3.13 mg/kg/injection, schedule: Q04DX003 (ip), vehicle: water) was 118 % of control and the T/C (dose: 6.25 mg/kg/injection, schedule: Q04DX003 (ip), vehicle: water) was 122 % of control. For the same compound, the T/C [7] was 155 % of control and 163 % of control, the T/C [8] was 173 % of control and 188 % of control and the T/C [9] was 194 % of control and 217 % of control. For the same compound, the T/C (dose: 150.0 mg/kg/injection, schedule: Q04DX003 (ip), vehicle: water) was 165 % of control.

For `Cn1cnc2c(NCCO)ncnc21`, the T/C (dose: 50.0 mg/kg/injection, schedule: Q01DX005 (ip), vehicle: saline with Tween-80) was 118 % of control, the T/C (dose: 100.0 mg/kg/injection, schedule: Q01DX005 (ip), vehicle: saline with Tween-80) was 100 % of control and the T/C (dose: 200.0 mg/kg/injection, schedule: Q01DX005 (ip), vehicle: saline with Tween-80) was 103 % of control.

`CCN(CC)CC(C)(C)C(=O)/C=C/c1ccc(/C=C/C(=O)C(C)(C)CN(CC)CC)cc1` was tested, and the T/C (dose: 7.5 mg/kg/injection, schedule: Q01DX005 (ip), vehicle: saline) was 115 % of control and 124 % of control.

With `CN(C)Cc1onc(-c2c(Cl)cccc2Cl)c1C(=O)O` the T/C [4] was 103 % of control and the T/C [5] was 95 % of control.

With `CSc1ccc(N2C(=O)CCSC2=S)cc1Cl` the T/C (dose: 50.0 mg/kg/injection, schedule: Q01DX009 (ip), vehicle: suspension in saline) was 108 % of control, the T/C (dose: 100.0 mg/kg/injection, schedule: Q01DX009 (ip), vehicle: suspension in saline) was 110 % of control and the T/C (dose: 200.0 mg/kg/injection, schedule: Q01DX009 (ip), vehicle: suspension in saline) was 114 % of control.

In the case of `S=C(S)N1CCCCCC1`, the T/C (dose: 60.0 mg/kg/injection, schedule: Q01DX005 (ip), vehicle: suspension in saline) is reported as 97 % of control and the T/C (dose: 120.0 mg/kg/injection, schedule: Q01DX005 (ip), vehicle: suspension in saline) is reported as 95 % of control.

`O=c1c(Cl)c(Cl)cnn1-c1ccccc1` was tested, and the T/C (dose: 25.0 mg/kg/injection, schedule: Q01DX001 (ip), vehicle: saline with Tween-80) was 100 % of control, the T/C (dose: 50.0 mg/kg/injection, schedule: Q01DX001 (ip), vehicle: saline with Tween-80) was 118 % of control and the T/C [10] was 111 % of control. The T/C [11] was 111 % of control.

`CC1(C)OCC(C2OC(C)(C)OC2C2OC(O)C=CC2=O)O1` (stereo not drawn) was tested, and the T/C (dose: 0.78 mg/kg/injection, schedule: Q01DX009 (ip), vehicle: distilled water + Tween-80) was 108 % of control and 103 % of control, the T/C (dose: 1.56 mg/kg/injection, schedule: Q01DX009 (ip), vehicle: distilled water + Tween-80) was 116 % of control and 103 % of control and the T/C (dose: 3.13 mg/kg/injection, schedule: Q01DX009 (ip), vehicle: distilled water + Tween-80) was 100 % of control and 94 % of control. For the same compound, the T/C (dose: 6.25 mg/kg/injection, schedule: Q01DX009 (ip), vehicle: distilled water + Tween-80) was 100 % of control.

`Cc1cc(SSc2cc(C)nc(N)n2)nc(N)n1` was tested, and the T/C [10] was 86 % of control and the T/C [11] was 86 % of control.

`O=[N+]([O-])/C=C/c1cc2c(cc1Cl)OCO2` was tested, and the T/C (dose: 50.0 mg/kg/injection, schedule: Q01DX005 (ip), vehicle: Klucel (hydroxypropylcellulose) (HPC)) was 107 % of control, the T/C (dose: 100.0 mg/kg/injection, schedule: Q01DX005 (ip), vehicle: Klucel (hydroxypropylcellulose) (HPC)) was 111 % of control and the T/C (dose: 200.0 mg/kg/injection, schedule: Q01DX005 (ip), vehicle: Klucel (hydroxypropylcellulose) (HPC)) was 95 % of control.

For `O=[N+]([O-])c1ccc(/C=N/O)s1`, the T/C (dose: 12.5 mg/kg/injection, schedule: Q01DX009 (ip), vehicle: Klucel (hydroxypropylcellulose) (HPC)) was 109 % of control, the T/C (dose: 25.0 mg/kg/injection, schedule: Q01DX009 (ip), vehicle: Klucel (hydroxypropylcellulose) (HPC)) was 101 % of control and the T/C [1] was 108 % of control.

For `O=C(O)C[N-]c1ccccc1.O=C(O)C[N-]c1ccccc1.[Ni+2]`, the T/C (dose: 6.25 mg/kg/injection, schedule: Q01DX009 (ip), vehicle: saline with Tween-80) was 86 % of control and the T/C (dose: 12.5 mg/kg/injection, schedule: Q01DX009 (ip), vehicle: saline with Tween-80) was 91 % of control.

For `COc1ccc2c(c1)nc(-c1ccccn1)n2CCc1ccccn1`, the T/C (dose: 50.0 mg/kg/injection, schedule: Q04DX002 (ip), vehicle: Klucel (hydroxypropylcellulose) (HPC)) was 113 % of control, the T/C (dose: 100.0 mg/kg/injection, schedule: Q04DX002 (ip), vehicle: Klucel (hydroxypropylcellulose) (HPC)) was 101 % of control and the T/C (dose: 200.0 mg/kg/injection, schedule: Q04DX002 (ip), vehicle: Klucel (hydroxypropylcellulose) (HPC)) was 104 % of control. The T/C (dose: 400.0 mg/kg/injection, schedule: Q04DX002 (ip), vehicle: Klucel (hydroxypropylcellulose) (HPC)) was 101 % of control.

For `O=C1CC2(CCCCC2)CC(=O)N1c1ccc(O)c(CN(Cc2ccccc2)Cc2ccccc2)c1`, the T/C (dose: 100.0 mg/kg/injection, schedule: Q04DX003 (ip), vehicle: Klucel (hydroxypropylcellulose) (HPC)) was 90 % of control, the T/C (dose: 200.0 mg/kg/injection, schedule: Q04DX003 (ip), vehicle: Klucel (hydroxypropylcellulose) (HPC)) was 92 % of control and the T/C (dose: 400.0 mg/kg/injection, schedule: Q04DX003 (ip), vehicle: Klucel (hydroxypropylcellulose) (HPC)) was 93 % of control.

With `CCOC1(NC(=O)N(C)C)C2CCCCC21` (stereo not drawn) the T/C [1] was 98 % of control, the T/C [2] was 104 % of control and the T/C [3] was 101 % of control.

`COc1ccc2c(c1O)-c1cccc3c1C(C2)N(CCOCCCl)CC3` (stereo not drawn) was tested, and the T/C (dose: 12.5 mg/kg/injection, schedule: Q04DX003 (ip), vehicle: water) was 99 % of control, the T/C [7] was 107 % of control and the T/C [8] was 101 % of control. For the same compound, the T/C [9] was 104 % of control.

For `c1cc2c3c(c1)nc(CCc1nc4cccc5c4n1CCC5)n3CCC2`, the T/C (dose: 25.0 mg/kg/injection, schedule: Q04DX003 (ip), vehicle: saline with Tween-80) was 109 % of control, the T/C (dose: 50.0 mg/kg/injection, schedule: Q04DX003 (ip), vehicle: saline with Tween-80) was 86 % of control and the T/C (dose: 100.0 mg/kg/injection, schedule: Q04DX003 (ip), vehicle: saline with Tween-80) was 86 % of control.

In the case of `CC(C)COC1CN=NN1/C=C1\CCOC1=O` (stereo not drawn), the T/C [4] is reported as 102 % of control, the T/C [5] is reported as 107 % of control and the T/C [6] is reported as 100 % of control.
